{"source": "patent US6054456A", "about": "“Substituted piperazine derivatives” (Merck Sharp & Dohme Ltd., priority 1995, dated 2000)", "origin": "cited, not measured here", "key": {"[1]": {"test_system": "human 5-HT1Dα and 5-HT1Dβ receptor subtypes", "settings": "cf. WO-A-91/171174, Table 1"}, "[2]": {"settings": "humans, therapeutic doses"}}, "data": [{"smiles": "CNS(=O)(=O)Cc1ccc2[nH]cc(CCN(C)C)c2c1", "note": "[sumatriptan]", "values": [{"measurement": "discrimination between the human 5-HT1Dα and 5-HT1Dβ receptor subtypes", "setting": "[1]", "value": "barely discriminates between the human 5-HT1Dα and 5-HT1Dβ receptor subtypes"}, {"measurement": "adverse events", "setting": "[2]", "value": "certain adverse cardiovascular events"}]}]}
